This passage reports Emax, Ki and EC50 results from patent US20250109139A1, “TRICYCLIC COMPOUND, AND PREPARATION METHOD THEREFOR AND USE THEREOF” (SHANGHAITECH UNIVERSITY, priority 2022, published 2025).

One may read the Emax as the greatest response seen or fitted, relative to the assay's reference. What is called Ki is a dissociation constant, usually derived from enzyme kinetics or from competition with a known ligand. For orientation: EC50 means the concentration giving half of the maximal effect.

For test [1], the target named is T1, 5-hydroxytryptamine 1A (5-HT1A) receptors (Homo sapiens (Human), UniProt P08908). The test is described as follows: 5-HT1A receptor β-arrestin2 BRET (recruitment). Format: cell-based. The conditions noted are these: relative to endogenous ligand 5-hydroxytryptamine. The protocol: At the same time, in order to examine the downstream β-arrestin2 signaling pathway mediated by 5-HT1A receptors, on the first day, a 6 cm culture dish was used for transfection with 500 ng of 5-HT1A receptors containing C-terminal seaweed luciferase (5HT1AR-Rluc), 500 ng of G protein-coupled receptor kinase 2 (GRK2), 2500 ng of β-arrestin2 containing N-terminal green fluorescent protein (GFP2-ARRB2), and 14 μL of PEI. The next day, the confluent cells of a 6 cm culture dish were digested and reseeded into a 96-well plate with 100 μL of culture medium added to each well. On the third day, the drugs were added for test. The 96-well plate was taken out from the cell incubator to decant the culture medium, 40 µL of the substrate coelenterazine 400a (final concentration of 5 μM) was added to each well, and then 20 μL of different drugs were added sequentially from left to right to ensure that the final concentration of the drug decreased gradually from bottom to top, with two replicates per treatment. Finally, the prepared samples were loaded on machine for test. The machine readout value reflected the recruitment of β-arrestin2 to the membrane or the dissociation of G protein trimer. The former indicated the degree of activation of the β-arrestin2 signaling pathway downstream of the 5-HT1 serotonin 1A receptors, and the latter indicated the degree of activation of the G protein signaling pathway downstream of the serotonin 1A receptors.
(In general: Bioluminescence resonance energy transfer reports proximity on the nanometre scale.)

The target in test [2] is T1, 5-hydroxytryptamine 1A (5-HT1A) receptors. In words: 5-HT1A receptor radioligand competition binding assay ([3H]-LSD). The conditions noted are these: 293T membranes, read-out: Affinity Ki. The protocol: The affinity of the compounds of the present disclosure for 5-hydroxytryptamine 1A (5-HT1A) receptors was determined by a radioligand competition binding assay.
In the first step, a cell membrane component containing specific 5-HT1A receptors was prepared. […] A vacuum pump was used to suck off the culture medium, 3 mL of lysis buffer was added to each culture dish, and the cells were placed in a 4° C. cold room for 10 minutes. After the cells were detached, the cells were transferred to a 15 mL centrifuge tube and centrifuged at 1500 rpm for 5 minutes at 4° C., and the supernatant was discarded. The cell pellet was transferred to a tissue homogenizer, and 3 mL of lysis buffer was added and fully ground until the cells were broken. Then, cell suspension was equally aliquoted into several EP tubes, centrifuged at 12000 rpm for 5 minutes at 4° C., and the supernatant was discarded. The precipitate was the cell membrane component containing the 5-HT1A receptors.
First, a standard binding buffer was added to the cell membrane component containing the 5-HT1A receptors, and the cell membrane was disrupted and resuspended with an electric tissue homogenizer. 30 μL of membrane protein suspension was added to each well of a 96-well plate. Then, 30 μL of different drugs were added to the 96-well plate sequentially from bottom to top to ensure that the final drug concentrations were 10^−5 M, 10^−6 M, 10^−7 M, 10^−8 M, 10^−9 M, and 0 M, with two replicates per treatment. Next, 30 μL of [^3H]-LSD was added to each well of the 96-well plate. The plate was incubated at room temperature in the dark for 2 hours. Detection was conducted. The machine readout value reflected the amount of [^3H]-LSD bound on the membrane, and after further data processing, the binding affinity Ki values of different compounds for the 5-HT1A receptors were obtained.
A general note: Loss of bound radioactivity is the signal in a displacement assay; it reports binding, not function.

In test [3] the target is T2, dopamine D2 receptors (Homo sapiens (Human), UniProt P14416). The test is described as follows: Dopamine D2 receptor Gαi1 BRET (G protein trimer dissociation). Format: cell-based. The conditions noted are these: for Emax: relative to endogenous ligand dopamine, read-out: Gαi1 BRET Emax % ± SEM; for EC50: unit printed only in Cariprazine cell, read-out: Gαi1 BRET EC50. In a few lines:
(§1)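 G-protein assay: cells co-transfected with D2 receptor, Gαi1-Rluc, Gβ3 and Gγ9-GFP (1 μg each); β-arrestin2 assay: D2-Rluc, GRK2 and GFP2-β-arrestin2 co-transfected. Cells were reseeded after one day and tested on day three. Drug dilution series were added in duplicate with coelenterazine 400a (5 μM final), and the BRET signal was read.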

Test [4] addresses T2, dopamine D2 receptors. In words: Dopamine D2 receptor β-arrestin2 BRET (recruitment). Format: cell-based. As to conditions: for Emax: relative to endogenous ligand dopamine, read-out: β-arrestin2 BRET Emax % ± SEM; for EC50: unit printed only in Cariprazine cell, read-out: β-arrestin2 BRET EC50. In a few lines:
as §1

For test [5], the target named is T1, 5-hydroxytryptamine 1A (5-HT1A) receptors. The test is described as follows: 5-HT1A receptor Gαi1 BRET (G protein trimer dissociation). Format: cell-based. As to conditions: relative to endogenous ligand 5-hydroxytryptamine.
Test [6] concerns the target T2, dopamine D2 receptors. The test is described as follows: Dopamine D2 receptor radioligand competition binding assay ([3H]-Methylspiperone). The conditions noted are these: [3H]-Methylspiperone 0.3 to 0.5 nM, 293T membranes; read-out: Affinity Ki. An outline of the steps:
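Membranes from cells transfected with human D2 receptor, PEI-mediated; competition with [3H]-methylspiperone for 2 h at room temperature in the dark.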

T1 sequence (P08908 whole entry): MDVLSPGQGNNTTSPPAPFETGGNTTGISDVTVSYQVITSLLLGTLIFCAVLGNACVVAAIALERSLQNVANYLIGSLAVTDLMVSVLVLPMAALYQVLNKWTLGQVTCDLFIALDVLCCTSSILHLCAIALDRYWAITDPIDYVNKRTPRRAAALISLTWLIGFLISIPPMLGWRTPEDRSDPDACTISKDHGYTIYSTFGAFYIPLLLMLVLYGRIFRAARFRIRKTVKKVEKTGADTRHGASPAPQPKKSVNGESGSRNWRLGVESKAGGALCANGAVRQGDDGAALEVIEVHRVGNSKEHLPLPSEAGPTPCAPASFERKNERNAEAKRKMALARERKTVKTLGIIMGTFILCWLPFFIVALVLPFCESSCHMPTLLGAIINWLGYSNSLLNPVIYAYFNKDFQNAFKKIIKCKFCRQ
T2 sequence (P14416 whole entry): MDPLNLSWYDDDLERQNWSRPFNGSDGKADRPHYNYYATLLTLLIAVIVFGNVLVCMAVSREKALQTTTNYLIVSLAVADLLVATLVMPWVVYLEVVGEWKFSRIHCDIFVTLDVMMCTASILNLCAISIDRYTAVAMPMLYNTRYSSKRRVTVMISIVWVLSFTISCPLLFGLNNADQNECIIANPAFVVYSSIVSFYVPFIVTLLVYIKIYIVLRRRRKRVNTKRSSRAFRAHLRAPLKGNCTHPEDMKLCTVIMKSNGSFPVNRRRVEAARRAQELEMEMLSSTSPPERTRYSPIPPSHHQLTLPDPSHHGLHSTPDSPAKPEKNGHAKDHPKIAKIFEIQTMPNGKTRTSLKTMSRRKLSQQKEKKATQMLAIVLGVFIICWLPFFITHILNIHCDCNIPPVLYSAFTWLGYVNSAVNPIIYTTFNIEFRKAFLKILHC

Consider `COc1cccc2c3c(oc12)CN(CCCCn1ncc(=O)n(C)c1=O)CC3` [I-A22, 2-(4-(8-methoxy-3,4-dihydrobenzofuro[2,3-c]pyridin-2(1H)-yl)butyl)-4-methyl-1,2,4-triazine-3,5(2H,4H)-dione], for which the maximum response (Emax) in test [1] is 49.6%; at dopamine D2 receptors [3], 79%; on dopamine D2 receptors [4], 89%; in test [5], 59.5%. For the same compound, the inhibition constant Ki in test [2] was determined as 0.073 nM. Further, the EC50 on dopamine D2 receptors [3] is 56 nM; on dopamine D2 receptors [4], 86.4 nM.

Turning to `CCOc1cccc2c3c(oc12)CN(CCNC(=O)C1CCCCCC1)CC3` [I-A32, N-(2-(8-ethoxy-3,4-dihydrobenzofuro[2,3-c]pyridin-2(1H)-yl)ethyl)cycloheptanecarboxamide], the maximal response (Emax) in test [1] worked out at 31.6%; at dopamine D2 receptors [3], 21%; at dopamine D2 receptors [4], 12%; in test [5], 102%. The Ki in test [2] turned out to be 2.55 nM. Also, the EC50 at dopamine D2 receptors [3] turned out to be 12.9 nM; on dopamine D2 receptors [4], 233 nM.

With `CCOc1cccc2c3c(oc12)CN(CCN1CCCc2c(cnn2C)C1=O)CC3` [I-A42, 5-(2-(8-ethoxy-3,4-dihydrobenzofuro[2,3-c]pyridin-2(1H)-yl)ethyl)-1-methyl-5,6,7,8-tetrahydropyrazolo[4,3-c]azepin-4(1H)-one], the values for the maximal response (Emax) in test [1] and in test [5] were 21% and 101%, respectively. Further, the inhibitory constant (Ki) in test [2] turned out to be 0.42 nM.

In the case of `COc1cccc2c3c(oc12)CN(CCNC(=O)C1CCC(F)(F)CC1)CC3` [I-A15, 4,4-difluoro-N-(2-(8-methoxy-3,4-dihydrobenzofuro[2,3-c]pyridin-2(1H)-yl)ethyl)cyclohexane-1-carboxamide], the maximal effect (Emax) in test [1] is 92%; in test [5] it was 123%. The figures for the Ki (on dopamine D2 receptors [6]; in test [2]) were 272 nM and 5.43 nM, respectively.
